One data set concerns Promyelotic HL-60 cells. Kind of data set: MTT assay, cytotoxic effect on HL-60 cells. The data set is classed as cell-based. The protocol:
(§1) To investigate the cytotoxic effect of inventive extract of P. longifolium extract and the compound isolated therefrom was determined by (3-[4,5-dimethylthiazol-2-yl]-2,5-diphenyl tetrazolium bromide(MTT) assay method (Wang Z et al., Biol., Pharm. Bull., 24, pp 159-162, 2001).
(§2) Promyelotic HL-60 cells (HL-18103, 5×10^5 cells/ml) were seeded in 96-well plates under NGF-free condition. After 24 hours incubation, the cells were treated with the mixture of samples dissolved in 10 μl of DMSO and 10 μl of MTT solution (5 mg/ml), and incubated for 4 hours under similar condition. 4 hours later, MTT was removed and 100 μl of DMSO was dropped into each well to dissolve crystals. At 570 nm, UV absorbance was measured by microplate reader (BIO-RAD, U.S.A.) to calculate the cell viability.
(In general: Formazan colour is commonly taken as a measure of viable cells.)

Data set [1] in a line: MTT assay, cytotoxic effect on HL-60 cells. The data set is classed as cell-based. Particulars: human, HL-60 promyelocytic cells, read-out: Cell viability (%). The protocol:
as §1, §2

A further data set deals with IgE. Kind of data set: Measurement of IgE by ELISA in plasma and BALF of OVA-challenged mice. The data set is classed as in vivo, mouse. Particulars: for IgE level in BALF: OVA-treated mice 59.4±38.4; for IgE level in plasma: OVA-treated mice 85.6±17.3. As to the method:
(§3) Following treatment: (1) sham-sensitization plus challenge with phosphate-buffered saline (PBS; ipNeb); (2) sensitization plus challenge with OVA (ovalbumin: Sigma A5503; Sigma, St. Louis, Mo.)(ipNeb); (3) sensitization with OVA (i.p.) plus challenge with OVA (Neb) and samples (extract of P. longifolium or montelukast) was performed to Group of mice (n=5). Briefly, mice were sensitized by intraperitoneal injection of 20 μg OVA, which was emulsified with 2 mg aluminum hydroxide in 100 μl of PBS buffer (pH 7.4) on days 0 and 14. The mice were challenged through the airways with OVA (1% in PBS) for 20 min using an ultrasonic nubuilizer (NE-U12; Omron Corp., Tokyo, Japan) on days 28, 29 and 30 after the initial sensitization. The mice were sacrificed 48 h after the last challenge (day 32) to determine the suppression effect of extract of P. longifolium or verproside on the airways of allergic asthma.
(§4) The extract of P. longifolium, and verproside were suspended in PBS and administered intragastrically using a 25-gauge stainless steel blunt feeding needle 1 h before each challenge, and control animals were exposed only on the PBS solution. As a positive control, montelukast (MSD Korea Ltd., Seoul, Korea) was treated with the same procedure in the experiment.
Complementary capture and detection antibody pairs for mouse IgE antibodies were purchased from PharMingen (San Diego, Calif.), and the IgE enzyme-linked immunosorbent assay (ELISA) was performed according to the manufacturer's directions. Duplicate samples in plasma were diluted to 1:100. IgE levels in each sample were measured from optical density readings at 450 nm, and IgE concentrations were calculated from a standard curve that was generated using recombinant IgE (5-2,000 ng/ml). The amount of IL-4 and IL-13 contained in BALF was measured with a specific mouse ELISA kit (R&D Systems; Minneapolis, Minn.). The detection limit of the assays was 250 pg/ml.
In general terms: In an ELISA, binding on a coated surface is turned into a signal by an enzyme label.

Another data set deals with IL-4. Kind of data set: Measurement of IL-4 in BALF by ELISA in OVA-induced asthmatic mice. The following applies: from OVA-challenged group; 48 hours after last challenge. The data set is classed as in vivo, mouse. As to the method: (§5) Following treatment: (1) sham-sensitization plus challenge with phosphate-buffered saline (PBS; ipNeb); (2) sensitization plus challenge with OVA (ovalbumin: Sigma A5503; Sigma, St. Louis, Mo.)(ipNeb); (3) sensitization with OVA (i.p.) plus challenge with OVA (Neb) and samples (extract of P. longifolium or montelukast) was performed to Group of mice (n=5). Briefly, mice were sensitized by intraperitoneal injection of 20 μg OVA, which was emulsified with 2 mg aluminum hydroxide in 100 μl of PBS buffer (pH 7.4) on days 0 and 14. […]
(§6) Complementary capture and detection antibody pairs for mouse IgE antibodies were purchased from PharMingen (San Diego, Calif.), and the IgE enzyme-linked immunosorbent assay (ELISA) was performed according to the manufacturer's directions. […] IgE levels in each sample were measured from optical density readings at 450 nm, and IgE concentrations were calculated from a standard curve that was generated using recombinant IgE (5-2,000 ng/ml). The amount of IL-4 and IL-13 contained in BALF was measured with a specific mouse ELISA kit (R&D Systems; Minneapolis, Minn.). […]
(§7) To determine the effect of verproside on cytokine release in the OVA-induced asthmatic mice, the levels of cytokines (IL-4 and IL-13) in BALF were measured using ELISA 48 hours after the last challenge. […]

The test system of data set [2] is OVA-challenged mice. Kind of data set: Lung histology (H&E and PAS staining) in OVA-challenged mice. The data set is classed as in vivo, BALB/c mice. Particulars: for mucus area score: PAS, five-point system 0-4, OVA-treated mice 3.60±0.64, FIG. 5. The protocol: as §3, §4
To estimate the suppressive effect of verproside on the eosinophilia, lung tissues were collected 48 hours after the last challenge. The lung tissue was fixed for 24 h in 10% neutral-buffered formalin. After being embedded in paraffin, it is sliced into 4-μm thickness of sections and the tissue was stained with H&E solution (hematoxylin; Sigma MHS-16 and eosin, Sigma HT110-I-32).
In Periodic acid Schiff (PAS) staining, mucus overproduction in the OVA-treated mice was clearly observed as a violet color in the bronchial airways compared with the normal mice. […] Goblet-cell hyperplasia in the airway epithelium was quantified based on a five-point system: 0, no goblet cells; 1, <25% of the epithelium; 2, 25-50% of the epithelium; 3, 50-75% of the epithelium; 4, >75% of the epithelium. For each mouse, five airway sections that were randomly distributed throughout the left lung were analysed, and their average scores were calculated. Quantitative analysis of mucus production was performed using an image analyzer (Leica Microsystem Imaging solution Ltd.; Cambridge, UK).

The next data set concerns IL-13. Kind of data set: Measurement of IL-13 in BALF by ELISA in OVA-induced asthmatic mice. The data set is classed as in vivo, mouse. Particulars: from OVA-challenged group; 48 hours after last challenge. As to the method:
as §5, §6, §7

Data set [3] concerns OVA-challenged mice. Kind of data set: OVA-induced eosinophilia: inflammatory cell counts in bronchoalveolar lavage fluid. The data set is classed as in vivo, BALB/c mice. The following applies: from OVA-treated control group; 48 hours after last challenge.
Source text: (§8) Specific pathogen-free female BALB/c mice aged 8-10 weeks, which were routinely screened serologically for relevant respiratory pathogens, were purchased from ORIENT Co Ltd (Seoul, Korea).
as §3, §4
The mice were sacrificed with an overdose of pentobarbital (Sigma P3761) […] after the last challenge, and a tracheotomy was performed. After ice-cold 0.5 ml of PBS was instilled into the lungs, bronchoalveolar lavage fluid (BALF) was obtained by aspiration three times (total 1.5 ml) via tracheal cannulation (Yamazaki T, J. Jap. Bot., 43, pp 117-24, 1968)
The total inflammatory cell number was assessed by counting cells in at least five squares of a hemocytometer after excluding dead cells confirmed by staining with trypan blue (Daigle I. et al., Swiss Med Wkly, 131, pp 231-7, 2001). 100 μl of BALF was loaded onto a slide and centrifuged (200×g, 4° C., 10 min) to fix the cells onto the slide using a cytospine machine (Hanil Science Industrial, Korea). The cells were stained by Diff-Quick® Stain reagents (Sysmex, Cat No. 38721, Switzerland) according to the manufacturer's instructions. Statistical significance was determined by Student's two-tailed t-test for independent means and the critical level for significance was set at P<0.05.
To evaluate the suppression of verproside on the eosinophilia in OVA-challenged mice, the recruited cells in BALF were counted 48 hours after the last challenge. OVA caused a marked influx of leucocytes into the BALF from a PBS control group.

The subject of data set [4] is OVA-sensitized/challenged mouse model. Kind of data set: Airway hyperresponsiveness (AHR), Penh values in OVA-challenged mice. The data set is classed as in vivo, BALB/c mice. The following applies: 24 hours after final OVA challenge; FIG. 1. As to the method:
The AHR was evaluated by calculation Penh values (enhanced pause) 24 hours after the final OVA challenge.
as §8
as §3, with “asthma. […]” for “asthma.”

The structures appear in SMILES notation.

For `COc1ccc(C(=O)O[C@H]2[C@@H]3C=CO[C@@H](O[C@@H]4O[C@H](CO)[C@@H](O)[C@H](O)[C@H]4O)[C@@H]3[C@@]3(CO)O[C@@H]23)cc1OC` [6-O-veratroyl catalpol, 6-O-(3,4-dimethoxybenzoyl) catalpol], the results for the “Cell viability (%)” value with Promyelotic HL-60 cells (50 μM) and in the data set with Promyelotic HL-60 cells (100 μM) were 116% and 114%, respectively.
With `COc1ccc(/C=C/C(=O)O[C@H]2[C@@H]3C=CO[C@@H](O[C@@H]4O[C@H](CO)[C@@H](O)[C@H](O)[C@H]4O)[C@@H]3[C@@]3(CO)O[C@@H]23)cc1O` [Minecoside, 6-O-3-hydroxy-4-methozycinnamoyl catalpol], in data set [1] (50 μM), the viability at 4 h, 50 µM worked out at 98%. Further, the viability at 4 h, 100 µM in data set [1] (100 μM) came to 95%.
Turning to `CC(C)(O)c1ccccc1CC[C@@H](SCC1(CC(=O)O)CC1)c1cccc(/C=C/c2ccc3ccc(Cl)cc3n2)c1` [montelukast, reference compound], in the data set with IgE, the “IgE level in BALF” value was found to be 3.8 ± 0.7 ng/mL and the “IgE level in plasma” value was 31.4 ± 14.2 µg/mL. The “decrease in IL-4 in BALF” value with IL-4 came out at 69.5±22.0%. In addition, the mucus area score with OVA-challenged mice [2] came out at 1.53±0.24. Further, the “decrease in IL-13 in BALF” value in the data set with IL-13 is reported as 84.5±8.2%. Also, in the data set on OVA-challenged mice [3], the “decrease in eosinophils in BALF” value stood at 80.7±11.1% and the “decrease in total cells in BALF” value is recorded as 78.3±12.1%.
Take `O=C(O[C@H]1[C@@H]2C=CO[C@@H](O[C@@H]3O[C@H](CO)[C@@H](O)[C@H](O)[C@H]3O)[C@@H]2[C@@]2(CO)O[C@@H]12)c1ccc(O)c(O)c1` [verproside, 6-O-3,4-Dihydroxybenzoyl catalpol]: in the data set on IgE, the “IgE level in BALF” value was 21.5 ± 11.2 ng/mL and the “IgE level in plasma” value is 40.2 ± 13.2 µg/mL. Moreover, the “decrease in IL-4 in BALF” value with IL-4 came out at 64.5±27.7%. The compound further yielded a mucus area score in the data set with OVA-challenged mice [2] of 1.43±0.23. Moreover, the “infiltration of eosinophil-rich leukocytes in lung tissue (H&E)” value with OVA-challenged mice [2] (compared with OVA-treated mice, 48 hours after last challenge, FIG. 3) is “significantly attenuated”. For the same compound, the “mucus in bronchial airways (PAS staining)” value with OVA-challenged mice [2] (compared with OVA-treated mice, FIG. 4) was “markedly diminished”. In the data set with IL-13, the “decrease in IL-13 in BALF” value is reported as 74.9±15.5%. The “Penh value compared with OVA-treated group (in words)” value in data set [4] is “significantly reduced”. Further, in the data set with OVA-challenged mice [3], the “decrease in eosinophils in BALF” value came to 86.2±7.2% and the “decrease in total cells in BALF” value is 79.3±13.1%. The “Cell viability (%)” value in the data set on Promyelotic HL-60 cells (50 μM) is reported as 105%. Further, in the data set on Promyelotic HL-60 cells (100 μM), the “Cell viability (%)” value turned out to be 102%.

One may read the viability as a per cent measure of how many cells are alive, often set against a control.

The record behind these values is US8974837B2, “Pharmaceutical composition comprising an extract of Pseudolysimachion longifolium and the catalpol derivatives isolated therefrom having antiinflammatory, antiallergic and antiasthmatic activity” (Korea Research Institute of Bioscience and Biotechnology, priority 2005, dated 2015).
